Laboratory results reported in ChEMBL document CHEMBL5154675, “Design, Synthesis, and Biological Evaluation of 1-(Indolizin-3-yl)ethan-1-ones as CBP Bromodomain Inhibitors for the Treatment of Prostate Cancer” (J Med Chem, 2022).

Legend:
[1] = target: T1, Bromodomain testis-specific protein (Homo sapiens, UniProt Q58F21); settings: dose 200.0 µM, time 30.0 min
[2] = target: Histone acetyltransferase p300 (Homo sapiens) (UniProt Q09472); settings: dose 200.0 µM, time 30.0 min
[3] = target: T2, Bromodomain-containing protein 4 (Homo sapiens, UniProt O60885); settings: dose 200.0 µM, time 30.0 min
CREB-binding protein [4] = target: T3, CREB-binding protein (Homo sapiens, UniProt Q92793); assay: Inhibition of His6-tagged human CBP bromodomain (1081 to 1197 residues) expressed in Escherichia coli BL21 (DE3) incubated for 30 mins by HTRF assay
Target sequence in this assay (Q92793 whole entry, the tested form may be a part): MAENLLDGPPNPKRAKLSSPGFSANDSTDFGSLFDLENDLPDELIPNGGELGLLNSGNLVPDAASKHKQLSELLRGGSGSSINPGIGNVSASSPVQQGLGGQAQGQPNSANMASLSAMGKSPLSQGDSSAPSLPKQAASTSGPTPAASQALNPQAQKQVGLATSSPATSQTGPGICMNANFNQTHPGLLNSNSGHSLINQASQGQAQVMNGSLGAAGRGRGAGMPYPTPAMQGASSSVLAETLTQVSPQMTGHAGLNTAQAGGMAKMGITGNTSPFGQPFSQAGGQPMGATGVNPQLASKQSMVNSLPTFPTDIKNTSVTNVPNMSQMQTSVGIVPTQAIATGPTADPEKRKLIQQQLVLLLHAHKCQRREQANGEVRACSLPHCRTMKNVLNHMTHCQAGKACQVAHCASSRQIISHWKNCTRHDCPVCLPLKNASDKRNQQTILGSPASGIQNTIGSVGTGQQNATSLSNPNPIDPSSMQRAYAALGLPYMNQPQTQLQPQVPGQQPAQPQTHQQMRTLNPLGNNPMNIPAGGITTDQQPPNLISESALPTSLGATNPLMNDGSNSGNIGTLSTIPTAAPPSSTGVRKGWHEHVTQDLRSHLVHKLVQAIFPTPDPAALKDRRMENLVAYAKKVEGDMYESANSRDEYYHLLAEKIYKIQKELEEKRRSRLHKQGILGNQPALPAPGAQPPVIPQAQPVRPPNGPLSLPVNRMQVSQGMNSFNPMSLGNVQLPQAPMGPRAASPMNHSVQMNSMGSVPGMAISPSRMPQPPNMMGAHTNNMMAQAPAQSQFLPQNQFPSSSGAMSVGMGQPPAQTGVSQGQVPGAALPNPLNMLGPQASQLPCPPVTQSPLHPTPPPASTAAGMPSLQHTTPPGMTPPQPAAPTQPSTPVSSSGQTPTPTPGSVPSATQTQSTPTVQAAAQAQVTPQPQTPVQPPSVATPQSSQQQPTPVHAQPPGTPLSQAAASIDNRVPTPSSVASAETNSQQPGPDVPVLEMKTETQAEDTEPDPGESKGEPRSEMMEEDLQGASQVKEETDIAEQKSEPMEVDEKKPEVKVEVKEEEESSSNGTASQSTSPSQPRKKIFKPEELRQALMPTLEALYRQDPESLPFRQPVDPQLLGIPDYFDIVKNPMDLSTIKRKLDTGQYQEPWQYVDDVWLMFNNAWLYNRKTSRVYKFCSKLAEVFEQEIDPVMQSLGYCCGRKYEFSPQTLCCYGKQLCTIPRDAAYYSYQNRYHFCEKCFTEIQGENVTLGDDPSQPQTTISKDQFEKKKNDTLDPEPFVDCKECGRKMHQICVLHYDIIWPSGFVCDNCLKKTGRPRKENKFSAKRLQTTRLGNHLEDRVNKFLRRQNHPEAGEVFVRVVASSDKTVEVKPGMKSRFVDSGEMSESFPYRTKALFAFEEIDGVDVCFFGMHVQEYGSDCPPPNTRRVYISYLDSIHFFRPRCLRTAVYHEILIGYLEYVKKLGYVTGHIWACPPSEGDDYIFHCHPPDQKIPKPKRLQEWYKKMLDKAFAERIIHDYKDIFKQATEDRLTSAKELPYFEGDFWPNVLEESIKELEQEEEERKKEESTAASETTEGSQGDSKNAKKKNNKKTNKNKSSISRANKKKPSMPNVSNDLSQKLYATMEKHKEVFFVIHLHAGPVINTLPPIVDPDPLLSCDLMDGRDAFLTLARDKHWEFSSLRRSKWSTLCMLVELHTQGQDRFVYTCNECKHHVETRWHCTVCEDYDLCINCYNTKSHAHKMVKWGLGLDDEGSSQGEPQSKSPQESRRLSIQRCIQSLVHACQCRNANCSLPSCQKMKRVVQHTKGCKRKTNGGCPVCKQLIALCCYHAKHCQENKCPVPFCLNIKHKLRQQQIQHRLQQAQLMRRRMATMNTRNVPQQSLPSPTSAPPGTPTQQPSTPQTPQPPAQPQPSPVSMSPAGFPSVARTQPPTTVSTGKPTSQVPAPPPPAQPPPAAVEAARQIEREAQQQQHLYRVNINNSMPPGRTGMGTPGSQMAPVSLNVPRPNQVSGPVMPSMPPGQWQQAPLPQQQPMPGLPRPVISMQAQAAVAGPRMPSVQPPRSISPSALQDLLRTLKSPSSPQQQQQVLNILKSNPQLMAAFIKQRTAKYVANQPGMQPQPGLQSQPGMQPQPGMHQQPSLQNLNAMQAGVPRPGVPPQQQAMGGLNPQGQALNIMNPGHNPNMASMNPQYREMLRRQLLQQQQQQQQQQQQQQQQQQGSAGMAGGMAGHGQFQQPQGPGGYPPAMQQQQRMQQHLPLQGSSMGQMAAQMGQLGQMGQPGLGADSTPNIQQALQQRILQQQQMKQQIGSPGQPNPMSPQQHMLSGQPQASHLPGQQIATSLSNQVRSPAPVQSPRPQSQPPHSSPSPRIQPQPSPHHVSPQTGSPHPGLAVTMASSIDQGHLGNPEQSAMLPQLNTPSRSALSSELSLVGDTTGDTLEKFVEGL

[5] = target: PH-interacting protein (Homo sapiens) (UniProt Q8WWQ0); settings: dose 200.0 µM, time 30.0 min
LNCaP C4-2B = assay: Antiproliferative activity against human LNCaP C4-2B cells assessed as inhibition of cell growth by Celltiter-Glo assay; assay type: functional, cell-based
[6] = target: Bromodomain adjacent to zinc finger domain protein 2B (Homo sapiens) (UniProt Q9UIF8); settings: dose 200.0 µM, time 30.0 min
[7] = target: T2, Bromodomain-containing protein 4; settings: dose 200.0 µM, time 30.0 min; remark: listed apart in the source
[8] = target: Chromatin remodeling regulator CECR2 (Homo sapiens) (UniProt Q9BXF3); settings: dose 200.0 µM, time 30.0 min
CREB-binding protein [9] = target: T3, CREB-binding protein; assay: Binding affinity to His6-tagged human CBP bromodomain (1081 to 1197 residues) expressed in Escherichia coli BL21 (DE3) assessed as dissociation constant by ITC analysis
Target sequence in this assay (Q92793 whole entry, the tested form may be a part): as above

CREB-binding protein [10] = target: T3, CREB-binding protein; settings: dose 200.0 µM, time 30.0 min
Target sequence in this assay (Q92793 2-2442 limits assumed): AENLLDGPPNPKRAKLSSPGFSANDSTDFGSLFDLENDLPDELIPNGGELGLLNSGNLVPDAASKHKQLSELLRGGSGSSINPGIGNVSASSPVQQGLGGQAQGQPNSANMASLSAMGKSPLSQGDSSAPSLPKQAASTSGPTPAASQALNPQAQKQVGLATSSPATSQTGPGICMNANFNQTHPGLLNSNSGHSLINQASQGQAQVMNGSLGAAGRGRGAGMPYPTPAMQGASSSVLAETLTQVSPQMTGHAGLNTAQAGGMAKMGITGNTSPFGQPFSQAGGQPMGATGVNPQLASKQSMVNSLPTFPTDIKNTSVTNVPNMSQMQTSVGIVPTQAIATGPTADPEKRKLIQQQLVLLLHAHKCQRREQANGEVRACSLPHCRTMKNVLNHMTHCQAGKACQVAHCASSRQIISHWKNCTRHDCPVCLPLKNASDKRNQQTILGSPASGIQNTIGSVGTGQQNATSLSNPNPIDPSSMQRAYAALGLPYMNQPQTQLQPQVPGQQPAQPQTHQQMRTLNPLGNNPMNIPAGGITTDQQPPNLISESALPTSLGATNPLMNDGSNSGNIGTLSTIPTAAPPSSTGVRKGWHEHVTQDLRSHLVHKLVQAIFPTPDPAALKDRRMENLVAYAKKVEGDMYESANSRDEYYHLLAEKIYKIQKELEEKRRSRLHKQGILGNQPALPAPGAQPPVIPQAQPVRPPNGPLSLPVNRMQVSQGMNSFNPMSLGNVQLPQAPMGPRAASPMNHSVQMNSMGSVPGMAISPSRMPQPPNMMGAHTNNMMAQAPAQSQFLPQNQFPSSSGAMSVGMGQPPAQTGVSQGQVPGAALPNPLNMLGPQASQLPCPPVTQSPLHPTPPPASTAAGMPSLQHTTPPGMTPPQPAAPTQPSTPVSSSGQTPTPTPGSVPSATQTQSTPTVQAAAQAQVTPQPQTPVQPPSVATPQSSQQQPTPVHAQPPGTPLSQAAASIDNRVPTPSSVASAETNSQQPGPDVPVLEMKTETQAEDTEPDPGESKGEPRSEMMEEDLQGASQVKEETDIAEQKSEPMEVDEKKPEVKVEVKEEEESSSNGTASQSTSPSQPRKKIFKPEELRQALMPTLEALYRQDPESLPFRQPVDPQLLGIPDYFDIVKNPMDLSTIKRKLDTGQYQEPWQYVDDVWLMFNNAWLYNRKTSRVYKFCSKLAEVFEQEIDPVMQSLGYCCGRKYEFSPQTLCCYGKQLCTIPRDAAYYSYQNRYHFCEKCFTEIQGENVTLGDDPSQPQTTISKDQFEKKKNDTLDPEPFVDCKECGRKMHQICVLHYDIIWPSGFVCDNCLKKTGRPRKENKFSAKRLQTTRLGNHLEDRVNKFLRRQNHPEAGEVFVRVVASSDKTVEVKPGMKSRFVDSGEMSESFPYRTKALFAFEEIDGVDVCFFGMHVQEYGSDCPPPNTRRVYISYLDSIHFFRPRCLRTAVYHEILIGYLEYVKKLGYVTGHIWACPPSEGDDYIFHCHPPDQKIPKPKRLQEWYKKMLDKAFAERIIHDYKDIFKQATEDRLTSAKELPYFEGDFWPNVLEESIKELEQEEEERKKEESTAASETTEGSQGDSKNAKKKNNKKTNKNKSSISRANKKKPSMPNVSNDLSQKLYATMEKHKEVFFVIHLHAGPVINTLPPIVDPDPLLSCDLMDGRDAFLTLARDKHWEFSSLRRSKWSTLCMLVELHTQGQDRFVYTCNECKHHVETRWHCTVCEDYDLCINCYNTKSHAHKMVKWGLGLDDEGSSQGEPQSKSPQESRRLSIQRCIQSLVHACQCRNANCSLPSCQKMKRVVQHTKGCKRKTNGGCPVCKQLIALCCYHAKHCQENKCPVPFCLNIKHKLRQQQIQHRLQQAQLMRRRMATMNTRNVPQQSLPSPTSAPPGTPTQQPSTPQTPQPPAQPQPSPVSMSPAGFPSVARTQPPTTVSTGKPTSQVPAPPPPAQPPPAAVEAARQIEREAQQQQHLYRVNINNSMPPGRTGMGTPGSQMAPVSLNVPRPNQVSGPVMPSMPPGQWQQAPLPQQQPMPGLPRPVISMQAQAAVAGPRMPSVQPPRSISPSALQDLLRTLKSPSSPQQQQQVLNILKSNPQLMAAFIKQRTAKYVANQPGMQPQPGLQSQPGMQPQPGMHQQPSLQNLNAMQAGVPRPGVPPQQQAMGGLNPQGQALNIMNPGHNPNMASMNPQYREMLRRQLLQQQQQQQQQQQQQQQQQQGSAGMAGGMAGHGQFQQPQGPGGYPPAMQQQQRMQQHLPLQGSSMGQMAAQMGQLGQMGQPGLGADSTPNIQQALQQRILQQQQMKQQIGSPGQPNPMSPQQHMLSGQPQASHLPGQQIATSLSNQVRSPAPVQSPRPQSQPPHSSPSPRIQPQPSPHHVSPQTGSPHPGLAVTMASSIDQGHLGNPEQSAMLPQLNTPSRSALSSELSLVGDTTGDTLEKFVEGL

[11] = target: T4, Bromodomain-containing protein 2 (Homo sapiens, UniProt P25440); settings: dose 200.0 µM, time 30.0 min
[12] = target: Histone acetyltransferase KAT2B (Homo sapiens) (UniProt Q92831); settings: dose 200.0 µM, time 30.0 min
[13] = target: T1, Bromodomain testis-specific protein; settings: dose 200.0 µM, time 30.0 min; remark: listed apart in the source
CWR22R = assay: Antiproliferative activity against human 22Rv1 cells assessed as cell growth inhibition by Celltiter-Glo assay; assay type: functional, cell-based
[14] = target: T4, Bromodomain-containing protein 2; settings: dose 200.0 µM, time 30.0 min; remark: listed apart in the source
[15] = target: SWI/SNF-related matrix-associated actin-dependent regulator of chromatin subfamily A member 2 (Homo sapiens) (UniProt P51531); settings: dose 200.0 µM, time 30.0 min
[16] = target: T5, Bromodomain-containing protein 3 (Homo sapiens, UniProt Q15059); settings: dose 200.0 µM, time 30.0 min
[17] = target: T5, Bromodomain-containing protein 3; settings: dose 200.0 µM, time 30.0 min; remark: listed apart in the source
[18] = target: T6, Bromodomain-containing protein 9 (Homo sapiens) (UniProt Q9H8M2); settings: dose 200.0 µM, time 30.0 min
T6 sequence (whole entry): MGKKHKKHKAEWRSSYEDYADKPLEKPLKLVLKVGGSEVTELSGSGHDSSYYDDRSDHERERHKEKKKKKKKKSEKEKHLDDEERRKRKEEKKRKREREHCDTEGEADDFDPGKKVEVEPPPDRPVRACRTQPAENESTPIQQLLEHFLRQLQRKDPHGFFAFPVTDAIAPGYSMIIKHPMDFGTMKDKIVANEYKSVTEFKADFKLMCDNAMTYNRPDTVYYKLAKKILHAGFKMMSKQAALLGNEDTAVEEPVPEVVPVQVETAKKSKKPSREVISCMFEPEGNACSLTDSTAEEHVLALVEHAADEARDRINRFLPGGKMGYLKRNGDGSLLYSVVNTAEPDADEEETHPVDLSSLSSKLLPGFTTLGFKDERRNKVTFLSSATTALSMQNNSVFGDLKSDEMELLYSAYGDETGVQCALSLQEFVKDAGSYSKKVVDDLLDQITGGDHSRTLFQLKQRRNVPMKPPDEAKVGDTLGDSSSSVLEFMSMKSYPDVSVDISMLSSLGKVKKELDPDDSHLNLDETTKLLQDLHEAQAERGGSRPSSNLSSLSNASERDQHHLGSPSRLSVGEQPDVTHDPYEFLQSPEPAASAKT

LNCaP = assay: Antiproliferative activity against human LNCaP cells assessed as cell growth inhibition by Celltiter-Glo assay; assay type: functional, cell-based
[19] = Hepatic clearance in rat liver microsomes at 1 uM incubated for 45 mins in presence of NADPH by LC-MS/MS analysis; assay type: ADME, Microsome
[20] = Half life in rat liver microsomes at 1 uM incubated for 45 mins in presence of NADPH by LC-MS/MS analysis; assay type: ADME, Microsome
in vitro = settings: rat, liver microsomes
Description: Hepatic extraction ratio in rat liver microsomes at 1 uM incubated for 45 mins in presence of NADPH by LC-MS/MS analysis

[21] = Metabolic stability in rat liver microsomes assessed as parent compound remaining at 1 uM incubated for 45 mins in presence of NADPH by LC-MS/MS analysis; assay type: ADME, Microsome; settings: read-out: Stability
[22] = Intrinsic clearance in rat liver microsomes at 1 uM incubated for 45 mins in presence of NADPH by LC-MS/MS analysis; assay type: ADME, Microsome; settings: read-out: CLH
[23] = Apparent permeability across basolateral to apical side in human Caco-2 cells assessed as drug recovery at 10 uM measured after 2 hrs by LC-MS/MS analysis; assay type: ADME, cell-based; settings: read-out: Drug recovery
[24] = Apparent permeability across basolateral to apical side in human Caco-2 cells at 10 uM measured after 2 hrs by LC-MS/MS analysis; assay type: ADME, cell-based
[25] = Apparent permeability across apical to basolateral side in human Caco-2 cells assessed as drug recovery at 10 uM measured after 2 hrs by LC-MS/MS analysis; assay type: ADME, cell-based; settings: read-out: Drug recovery
[26] = Apparent permeability across apical to basolateral side in human Caco-2 cells at 10 uM measured after 2 hrs by LC-MS/MS analysis; assay type: ADME, cell-based
[27] = Half life in human liver microsomes at 1 uM incubated for 45 mins in presence of NADPH by LC-MS/MS analysis; assay type: ADME, Microsome
[28] = Metabolic stability in human liver microsomes assessed as parent compound remaining at 1 uM incubated for 45 mins in presence of NADPH by LC-MS/MS analysis; assay type: ADME, Microsome; settings: read-out: Stability
[29] = Intrinsic clearance in human liver microsomes at 1 uM incubated for 45 mins in presence of NADPH by LC-MS/MS analysis; assay type: ADME, Microsome; settings: read-out: CLH
[30] = Hepatic extraction ratio in human liver microsomes at 1 uM incubated for 45 mins in presence of NADPH by LC-MS/MS analysis; assay type: ADME, Microsome; settings: read-out: ERH
[31] = Hepatic clearance in human liver microsomes at 1 uM incubated for 45 mins in presence of NADPH by LC-MS/MS analysis; assay type: ADME, Microsome; settings: read-out: CLH

Structure (SMILES)	IC50 (CREB-binding protein [4]) [µM]	IC50 (LNCaP C4-2B) [µM]	ΔTm (CREB-binding protein [10]) [°C]	further results
C[C@@H]1CC(=O)Nc2cccc(-c3ccc4c(c3)c(-c3cnn(C)c3)nn4C)c2N1	0.014	3.35	14.3	ΔTm [1]: 1.8 °C; ΔTm [2]: 15.5 °C; ΔTm [3]: 5 °C; ΔTm [5]: 0 °C; ΔTm [6]: -0.2 °C; ΔTm [7]: 0 °C; ΔTm [8]: -0.2 °C; Kd (CREB-binding protein [9]): 0.068 µM; ΔTm [11]: 1.3 °C; ΔTm [12]: -0.2 °C; ΔTm [13]: -0.5 °C; IC50 (CWR22R): 3.13 µM; ΔTm [14]: 1 °C; ΔTm [15]: -0.3 °C; ΔTm [16]: 1.5 °C; ΔTm [17]: 1 °C; ΔTm [18]: 7 °C; IC50 (LNCaP): 0.65 µM
COc1ccc2c(c1)c(C(=O)Nc1cc(C(=O)O)cc(-c3cnn(C)c3)c1F)cn2C(C)=O	0.178	–	–	CLhep predicted at 1 µM [19]: 2.56 L/h/kg; Kd (CREB-binding protein [9]): 0.165 µM; half-life at 1 µM [20]: 13.1 min; hepatic extraction ratio at 0.75 h, 1 µM (in vitro): 0.774; remaining at 0.75 h, 1 µM [21]: 7.7%; CLint scaled at 1 µM [22]: 11.3 L/h/kg
CC(C)NCC(O)COc1cccc2ccccc12 (configuration not stated) [PROPRANOLOL]	–	–	–	recovery at 2 h, 10 µM [23]: 90.7%; Papp B→A at 2 h, 10 µM [24]: 189 nm/s; recovery at 2 h, 10 µM [25]: 85%; Papp A→B at 2 h, 10 µM [26]: 283 nm/s
CC(=O)c1cc(C(=O)Nc2cc(C(C)O)cc(-c3cnn(C4CC4)c3)c2F)c2cc(OC(=O)N(C)C)ccn12 (configuration not stated)	0.0262	9.09	10	–
CC(C)NCC(O)COc1ccc(CC(N)=O)cc1 (configuration not stated) [ATENOLOL]	–	–	–	recovery at 2 h, 10 µM [23]: 94.2%; recovery at 2 h, 10 µM [25]: 94.8%
O=C(c1ccc(F)cc1)C1CCN(CCn2c(=O)[nH]c3ccccc3c2=O)CC1 [KETANSERIN]	–	–	–	CLhep predicted at 1 µM [19]: 2.46 L/h/kg; half-life at 1 µM [20]: 15.6 min; CLint scaled at 1 µM [22]: 9.55 L/h/kg
COc1ccn2c(C(C)=O)cc(C(=O)Nc3cc(C(F)(F)F)cc(-c4cnn(C)c4)c3F)c2c1	–	> 50	2.7	–
COc1ccn2c(C(C)=O)cc(C(=O)Nc3cc(F)cc(-c4cnn(C)c4)c3F)c2c1	0.0696	> 50	6.6	–
Cn1cc(-c2cc(CO)cc(NC(=O)c3cc(C(=O)C4CC4)n4ccc(O)cc34)c2F)cn1	–	–	2.1	–
CC(=O)c1cc(C(=O)Nc2cc(CO)cc(-c3cnn(C4CC4)c3)c2F)c2cc(N)ccn12	0.00296	8.66	10.5	–
C[C@H]1O[C@@H](O[C@H]2[C@@H](O)C[C@H](O[C@H]3[C@@H](O)C[C@H](O[C@H]4CC[C@@]5(C)[C@H](CC[C@@H]6[C@@H]5C[C@@H](O)[C@]5(C)[C@@H](C7=CC(=O)OC7)CC[C@]65O)C4)O[C@@H]3C)O[C@@H]2C)C[C@H](O)[C@@H]1O [DIGOXIN]	–	–	–	recovery at 2 h, 10 µM [23]: 92.7%; Papp A→B at 2 h, 10 µM [26]: 12.6 nm/s
CCC(=O)c1cc(C(=O)Nc2cc(CO)cc(-c3cnn(C)c3)c2F)c2cc(O)ccn12	0.0785	34.9	11.1	–
COC(=O)c1cc(NC(=O)c2cc(C(C)=O)n3ccc(OC)cc23)c(F)c(-c2cnn(C)c2)c1	–	> 50	3.3	–
Cc1ncc2n1-c1ccc(Cl)cc1C(c1ccccc1F)=NC2 [MIDAZOLAM]	–	–	–	half-life at 1 µM [27]: 3.07 min; CLhep predicted at 1 µM [19]: 3.18 L/h/kg; remaining at 0.75 h, 1 µM [28]: 0.55%; CLint scaled at 1 µM [29]: 27.1 L/h/kg; hepatic extraction ratio at 0.75 h, 1 µM [30]: 0.962; half-life at 1 µM [20]: 1.85 min; hepatic extraction ratio at 0.75 h, 1 µM (in vitro): 0.961; remaining at 0.75 h, 1 µM [21]: 4.5%; CLint scaled at 1 µM [22]: 45 L/h/kg; CLint scaled at 1 µM [31]: 1.19 L/h/kg
COc1ccn2c(C(C)=O)cc(C(=O)Nc3cc(C(N)=O)cc(-c4cnn(C)c4)c3F)c2c1	–	–	2.4	–
COc1ccn2c(C(C)=O)cc(C(=O)Nc3cc(C=O)cc(-c4cnn(C)c4)c3F)c2c1	0.013	17.4	5.4	–

Structure (SMILES)	IC50 (CREB-binding protein [4]) [µM]	IC50 (LNCaP C4-2B) [µM]	ΔTm (CREB-binding protein [10]) [°C]	further results
CC(C)C(=O)c1cc(C(=O)Nc2cc(CO)cc(-c3cnn(C)c3)c2F)c2cc(O)ccn12	–	37	1.8	–
CCc1ccn2c(C(C)=O)cc(C(=O)Nc3cc(CO)cc(-c4cnn(C)c4)c3F)c2c1	0.0218	50	6.3	–
Cn1cc(-c2cc(CO)cc(NC(=O)c3cc(C(=O)C(C)(C)C)n4ccc(O)cc34)c2F)cn1	–	33.9	0.9	–
CC(=O)c1cc(C(=O)Nc2cc(CO)cc(-c3cnn(C)c3)c2F)c2cc(O)ccn12	–	34.2	12.6	Kd (CREB-binding protein [9]): 0.044 µM
CC(=O)c1cc(C(=O)Nc2cc(CO)cc(-c3cnn(C)c3)c2F)c2cc(OCc3ccccc3)ccn12	–	49.7	3.9	–
CC(=O)c1cc(C(=O)Nc2cc(C(C)O)cc(-c3cnn(C4CC4)c3)c2F)c2cc(O)ccn12 (configuration not stated)	0.079	42	12	–
CNc1ccn2c(C(C)=O)cc(C(=O)Nc3cc(CO)cc(-c4cnn(C)c4)c3F)c2c1	0.0021	> 50	9.9	–
CC(=O)c1cc(C(=O)Nc2cc(CO)cc(-c3cnn(C)c3)c2F)c2cc(CN)ccn12	0.0556	13.4	8.7	–
CC(=O)c1cc(C(=O)Nc2cc(CO)cc(-c3cnn(C4CC4)c3)c2F)c2cc(O)ccn12	0.0248	29	14.1	–
COc1ccn2c(C(C)=O)cc(C(=O)Nc3cc(C(=O)O)cc(-c4cnn(C)c4)c3F)c2c1	0.0098	–	11.4	Kd (CREB-binding protein [9]): 0.03 µM; half-life at 1 µM [20]: > 120 min; remaining at 0.75 h, 1 µM [21]: 100%
CC(=O)c1cc(C(=O)Nc2cc(CO)cc(-c3cnn(C)c3)c2F)c2cc(C)ccn12	0.014	> 50	6.3	–
CNC(=O)c1cc(C(=O)Nc2cc(CO)cc(-c3cnn(C)c3)c2F)c2cc(O)ccn12	–	–	2.4	–
CC(=O)c1cc(C(=O)Nc2cc(CO)cc(-c3cnn(C)c3)c2F)c2cc(OC(=O)C(C)(C)C)ccn12	0.042	29.6	6	–
COc1ccn2c(C(C)=O)cc(C(=O)Nc3cc(Cl)cc(-c4cnn(C)c4)c3F)c2c1	0.0552	9.28	6	–
COc1ccn2c(C(C)=O)cc(C(=O)Nc3cc(CO)cc(-c4cnn(C)c4)c3F)c2c1	0.012	9.57	8.4	–
